The source of these data is patent publication US4452982A, “Process for the preparation of nitrogen-bridgehead condensed pyrimidine compounds, and pharmaceutical compositions containing them” (Chinoin Gyogyszer es Vegyeszeti Termekek Gyara R.T., priority 1979, dated 1984).

One assay deals with allergic reactions. Briefly: PCA test-method (Ovary), antiallergic activity. To be noted: for ED50: iv. In kind it is in vivo. The procedure: The test is carried out by the PCA test-method (Ovary: J. Immun. 81, 355 (1958)) and the Church-test (British J. Pharm. 46, 56-66 (1972); Immunology 29, 527-534 (1975)) and for comparison disodium chromoglycate is used.
For another assay, the system named is allergic symptoms. To be noted: antiasthmatic agent, cited from earlier work.

As to `CC1CC=C(Nc2ccccc2)c2ncc(C(=O)O)c(=O)n21` (stereo not drawn) [9-anilino-6-methyl-4-oxo-6,7-dihydro-4H-pyrido[1,2-a]pyrimidine-3-carboxylic acid], the ED50 (usually the dose at which the effect has come halfway, by size or by number of responders) with allergic reactions is 1.3 µmol/kg.

The compound `O=C(O)c1cc(=O)c2c(OCC(O)COc3cccc4oc(C(=O)O)cc(=O)c34)cccc2o1` [disodium chromoglycolate] had a 50% effective dose (ED50) in the assay on allergic reactions of 1 µmol/kg. Moreover, the “oral activity / route of effectiveness” value in the assay on allergic reactions (oral vs. intravenous, conclusion from Table I) is “effective only when administered intravenously”. The “effect by inhaler (background statement)” value in the assay on allergic symptoms (inhaler) is on record as “produces the desired effect only by using an inhaler”. Moreover, in the assay on allergic symptoms (orally), the “oral activity (background statement)” value was “not active orally”.

`Cc1ccccc1NC1=CCC(C)n2c1ncc(C(=O)O)c2=O` (stereo not drawn) [6-methyl-9-(2-methylphenylamino)-4-oxo-6,7-dihydro-4H--pyrido[1,2-a]pyrimidine-3-carboxylic acid] came in with an ED50 with allergic reactions of 5.4 µmol/kg.
